# In PubChem BioAssay (NCI):
#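 GI50 marks 50% less growth. TGI: concentration producing complete growth inhibition.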
# Experiments:
# Test in all cases: growth of human tumour cells (NCI), 384-well format
# CAKI-1 renal = tested on: CAKI-1 renal
# RPMI-8226 leukemia = tested on: RPMI-8226 leukemia
# NCI-H522 lung = tested on: NCI-H522 lung
# U251 glioblastoma = tested on: U251 glioblastoma
# HOP-62 NSCLC = tested on: HOP-62 NSCLC
# KM12 colon = tested on: KM12 colon
# UO-31 renal = tested on: UO-31 renal
# OVCAR-4 ovarian = tested on: OVCAR-4 ovarian
# OVCAR-3 ovarian = tested on: OVCAR-3 ovarian
# HOP-92 NSCLC = tested on: HOP-92 NSCLC
# UACC-257 melanoma = tested on: UACC-257 melanoma
# NCI-H460 NSCLC = tested on: NCI-H460 NSCLC
# NCI-H226 lung = tested on: NCI-H226 lung
# NCI/ADR-RES ovarian = tested on: NCI/ADR-RES ovarian
# SK-MEL-28 melanoma = tested on: SK-MEL-28 melanoma
# PC-3 prostate = tested on: PC-3 prostate
# NCI-H322M lung = tested on: NCI-H322M lung
# IGROV1 ovarian = tested on: IGROV1 ovarian
# LOX IMVI melanoma = tested on: LOX IMVI melanoma
# MALME-3M melanoma = tested on: MALME-3M melanoma
# HCT-15 colon = tested on: HCT-15 colon
# K-562 leukemia = tested on: K-562 leukemia
# SNB-19 CNS = tested on: SNB-19 CNS
# MDA-MB-231 breast = tested on: MDA-MB-231 breast
# SF-295 CNS = tested on: SF-295 CNS
# CCRF-CEM leukemia = tested on: CCRF-CEM leukemia
# T-47D breast = tested on: T-47D breast
# MDA-MB-435 melanoma = tested on: MDA-MB-435 melanoma
# RXF 393 renal = tested on: RXF 393 renal
# ACHN renal = tested on: ACHN renal
# SW-620 colon = tested on: SW-620 colon
# MOLT-4 leukemia = tested on: MOLT-4 leukemia
# A549 NSCLC = tested on: A549 NSCLC
# M14 melanoma = tested on: M14 melanoma
# SF-539 CNS = tested on: SF-539 CNS
# A498 renal = tested on: A498 renal
# SK-MEL-5 melanoma = tested on: SK-MEL-5 melanoma
# SR leukemia = tested on: SR leukemia
# HS 578T breast = tested on: HS 578T breast
# SNB-75 CNS = tested on: SNB-75 CNS
# 786-0 renal = tested on: 786-0 renal
# SK-OV-3 ovarian = tested on: SK-OV-3 ovarian
# UACC-62 melanoma = tested on: UACC-62 melanoma
# BT-549 breast = tested on: BT-549 breast
# MDA-MB-468 breast = tested on: MDA-MB-468 breast
# DU-145 prostate = tested on: DU-145 prostate
# HL-60(TB) leukemia = tested on: HL-60(TB) leukemia
# HT29 colon = tested on: HT29 colon
# HCC-2998 colon = tested on: HCC-2998 colon
# OVCAR-8 ovarian = tested on: OVCAR-8 ovarian
# EKVX NSCLC = tested on: EKVX NSCLC
# MCF7 breast = tested on: MCF7 breast
# TK-10 renal = tested on: TK-10 renal
# COLO 205 colon = tested on: COLO 205 colon
# SN12C renal = tested on: SN12C renal
# NCI-H23 lung = tested on: NCI-H23 lung
# SF-268 CNS = tested on: SF-268 CNS
# OVCAR-5 ovarian = tested on: OVCAR-5 ovarian
compound,measurement,setting,value
CN(C)CC(=O)N1CCC(c2ccc(NC(=O)c3ncc(C#N)[nH]3)c(C3=CCCCC3)c2)CC1,GI50,CAKI-1 renal,4.11 µM
same,TGI,CAKI-1 renal,14.9 µM
same,GI50,RPMI-8226 leukemia,4.07 µM
same,TGI,RPMI-8226 leukemia,15.3 µM
same,GI50,NCI-H522 lung,10.6 µM
same,TGI,NCI-H522 lung,22.4 µM
same,GI50,U251 glioblastoma,5.48 µM
same,TGI,U251 glioblastoma,17.6 µM
same,GI50,HOP-62 NSCLC,4.18 µM
same,TGI,HOP-62 NSCLC,14.8 µM
same,GI50,KM12 colon,0.141 µM
same,TGI,KM12 colon,3.52 µM
same,GI50,UO-31 renal,12.1 µM
same,TGI,UO-31 renal,24.7 µM
same,GI50,OVCAR-4 ovarian,15.5 µM
same,TGI,OVCAR-4 ovarian,28.9 µM
same,GI50,OVCAR-3 ovarian,10.6 µM
same,TGI,OVCAR-3 ovarian,22.4 µM
same,GI50,HOP-92 NSCLC,1.43 µM
same,TGI,HOP-92 NSCLC,10.8 µM
same,GI50,UACC-257 melanoma,1.98 µM
same,TGI,UACC-257 melanoma,3.52 µM
same,GI50,NCI-H460 NSCLC,5.42 µM
same,TGI,NCI-H460 NSCLC,16.8 µM
same,GI50,NCI-H226 lung,3.85 µM
same,TGI,NCI-H226 lung,14.2 µM
same,GI50,NCI/ADR-RES ovarian,15.7 µM
same,TGI,NCI/ADR-RES ovarian,29.1 µM
same,GI50,SK-MEL-28 melanoma,1.8 µM
same,TGI,SK-MEL-28 melanoma,3.28 µM
same,GI50,PC-3 prostate,5.35 µM
same,TGI,PC-3 prostate,17.3 µM
same,GI50,NCI-H322M lung,7.63 µM
same,TGI,NCI-H322M lung,20.1 µM
same,GI50,IGROV1 ovarian,10.3 µM
same,TGI,IGROV1 ovarian,22 µM
same,GI50,LOX IMVI melanoma,3.32 µM
same,TGI,LOX IMVI melanoma,10.6 µM
same,GI50,MALME-3M melanoma,1.66 µM
same,TGI,MALME-3M melanoma,3.57 µM
same,GI50,HCT-15 colon,1.82 µM
same,TGI,HCT-15 colon,3.58 µM
same,GI50,K-562 leukemia,2.97 µM
same,TGI,K-562 leukemia,11.3 µM
same,GI50,SNB-19 CNS,9.85 µM
same,TGI,SNB-19 CNS,21.5 µM
same,GI50,MDA-MB-231 breast,6.96 µM
same,TGI,MDA-MB-231 breast,19.2 µM
same,GI50,SF-295 CNS,3.47 µM
same,TGI,SF-295 CNS,11.3 µM
same,GI50,CCRF-CEM leukemia,3.27 µM
same,TGI,CCRF-CEM leukemia,10.7 µM
same,GI50,T-47D breast,12.1 µM
same,TGI,T-47D breast,24.5 µM
same,GI50,MDA-MB-435 melanoma,3 µM
same,TGI,MDA-MB-435 melanoma,9.64 µM
same,GI50,RXF 393 renal,5.03 µM
same,TGI,RXF 393 renal,17.2 µM
same,GI50,ACHN renal,7.59 µM
same,TGI,ACHN renal,20 µM
same,GI50,SW-620 colon,10.4 µM
same,TGI,SW-620 colon,22.2 µM
same,GI50,MOLT-4 leukemia,2.61 µM
same,TGI,MOLT-4 leukemia,7.17 µM
same,GI50,A549 NSCLC,4.25 µM
same,TGI,A549 NSCLC,14.8 µM
same,GI50,M14 melanoma,1.89 µM
same,TGI,M14 melanoma,3.71 µM
same,GI50,SF-539 CNS,3.02 µM
same,TGI,SF-539 CNS,13 µM
same,GI50,A498 renal,2.04 µM
same,TGI,A498 renal,3.91 µM
same,GI50,SK-MEL-5 melanoma,1.7 µM
same,TGI,SK-MEL-5 melanoma,4.34 µM
same,GI50,SR leukemia,2.44 µM
same,TGI,SR leukemia,5.54 µM
same,GI50,HS 578T breast,2.66 µM
same,TGI,HS 578T breast,6.73 µM
same,GI50,SNB-75 CNS,4.4 µM
same,TGI,SNB-75 CNS,15.6 µM
same,GI50,786-0 renal,1.93 µM
same,TGI,786-0 renal,4.41 µM
same,GI50,SK-OV-3 ovarian,3.62 µM
same,TGI,SK-OV-3 ovarian,13.3 µM
same,GI50,UACC-62 melanoma,1.87 µM
same,TGI,UACC-62 melanoma,3.6 µM
same,GI50,BT-549 breast,2.4 µM
same,TGI,BT-549 breast,9.81 µM
same,GI50,MDA-MB-468 breast,4.3 µM
same,TGI,MDA-MB-468 breast,9.35 µM
same,GI50,DU-145 prostate,10.4 µM
same,TGI,DU-145 prostate,22.2 µM
same,GI50,HL-60(TB) leukemia,2.06 µM
same,TGI,HL-60(TB) leukemia,4.49 µM
same,GI50,HT29 colon,1.71 µM
same,TGI,HT29 colon,3.26 µM
same,GI50,HCC-2998 colon,2.48 µM
same,TGI,HCC-2998 colon,5.33 µM
same,GI50,OVCAR-8 ovarian,10.6 µM
same,TGI,OVCAR-8 ovarian,22.4 µM
same,GI50,EKVX NSCLC,12.5 µM
same,TGI,EKVX NSCLC,25 µM
same,GI50,MCF7 breast,2.72 µM
same,TGI,MCF7 breast,10.7 µM
same,GI50,TK-10 renal,8.66 µM
same,TGI,TK-10 renal,20.8 µM
same,GI50,COLO 205 colon,3.56 µM
same,TGI,COLO 205 colon,11.7 µM
same,GI50,SN12C renal,1.51 µM
same,TGI,SN12C renal,13 µM
same,GI50,NCI-H23 lung,2.93 µM
same,TGI,NCI-H23 lung,10.7 µM
same,GI50,SF-268 CNS,6.84 µM
same,TGI,SF-268 CNS,19.4 µM
same,GI50,OVCAR-5 ovarian,4.13 µM
same,TGI,OVCAR-5 ovarian,13.8 µM
